Patent US20230027072A1, “IMPROVED METHODS, KITS, COMPOSITIONS AND DOSING REGIMENS FOR THE USE OF HETEROCYCLIC INHIBITORS OF ERK1 AND ERK2” (Asana Biosciences, LLC, priority 2019, published 2023)

Tests used:
[1] = system: HCT116 (colorectal carcinoma, K Ras G13D) cells; experiment: Cell proliferation (Alamar Blue) assay, HCT116; type: cell-based, human; conditions: Homo sapiens, HCT-116, 72 h
Experimental: (§1) Cell Proliferation (Alamar Blue) Assay
(§2) HT-29 (colorectal carcinoma, B-RafV600E), HCT116 (colorectal carcinoma, K Ras G13D), A375 (melanoma, B-RafV600E) and SK-Mel2 (melanoma, NRAS Q61R) cells (obtained from ATCC, USA) were seeded (5000 cells/well) in 96-well tissue culture plate and incubated at 37° C./5% CO2 for 16-24 hours. The cells were then treated with compounds, at concentrations typically from 0.0005 to 10 uM prepared in 3-fold serial dilutions. The plates were then incubated for 72 h at 37° C./5% CO2 in a moist environment. Then Alamar Blue™ reagent (final concentration 1×) was added to each well and incubated for 1-3 h at 37° C./5% CO2. The plates were read on fluorescence reader at 540 nm excitation and 590 nm emission wavelengths. The IC50 values were subsequently determined using a sigmoidal dose-response curve (variable slope) using GraphPad Prism® 5 software. Compounds of the present disclosure caused inhibition of HT-29, HCT116, A375 and SK-Mel2 cell proliferation as determined in these assays.

ERK2 = target: T1, ERK2 (Homo sapiens, UniProt P28482); experiment: ERK2 HTRF (biochemical) assay
T1 construct: purchased Jubilant Biosys
T1 sequence (P28482 whole entry): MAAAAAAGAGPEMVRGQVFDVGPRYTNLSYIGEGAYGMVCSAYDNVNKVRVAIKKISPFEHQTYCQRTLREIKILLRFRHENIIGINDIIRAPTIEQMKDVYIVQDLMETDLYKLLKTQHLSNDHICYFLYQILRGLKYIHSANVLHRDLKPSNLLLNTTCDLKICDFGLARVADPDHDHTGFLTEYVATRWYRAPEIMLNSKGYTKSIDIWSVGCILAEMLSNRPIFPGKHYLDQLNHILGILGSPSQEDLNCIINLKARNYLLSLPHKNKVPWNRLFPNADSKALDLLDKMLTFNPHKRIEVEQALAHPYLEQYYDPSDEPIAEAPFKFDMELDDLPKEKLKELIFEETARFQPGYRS
Experimental: (§3) ERK1 and ERK2 HTRF (Biochemical) Assays
(§4) The assays described below employed a homogeneous time resolved fluorescence (HTRF) technique. The compounds were serially diluted by half-log with concentrations ranging from 0.0005 to 10 uM in the assay buffer (50 mM Tris pH-7.5, 1 mM EGTA, 2 mM DTT, 10 mM MgCl2, 0.1% Tween-20) and 20 uL of substrate-ATP mix [1 uM Biotin—LC-Myelin Basic Protein (MBP) derivatized Peptide (Anaspec)-24 uM ATP (Sigma)] was added to each well of the assay plate. Then 10 uL of enzyme mix [25 nM ERK1 or ERK2 (Jubilant Biosys) in assay buffer] was added to each well. The plate was incubated at room temperature for 60 min with shaking. The HTRF mix [625 nM LANCE® Ultra Europium-anti-phospho-MBP (Perkin Elmer) and 2 nM Phycolink® Streptavidin-Allophycocyanin (SA-APC) (Prozyme) in HTRF buffer (50 mM Tris-HCl pH-7.5, 100 mM NaCl, 0.1% BSA, 0.05% Tween20, 0.5 mM EDTA)] was prepared and 75 uL of this mix was added to the HTRF plate. After incubation for 60 min at room temperature, 10 uL of the reaction mixture was transferred to the HTRF assay plate and incubated for 45 min at room temperature with shaking. Plate was read using Pherastar in HTRF mode (excitation 337 nm, emission 665 & 620 nm). The IC50 values (half maximal inhibitory concentration values) were subsequently determined using a sigmoidal dose-response curve (variable slope) in GraphPad Prism® 5 software.

[2] = system: HT-29 (colorectal carcinoma, B-RafV600E) cells; experiment: Cell proliferation (Alamar Blue) assay, HT-29; type: cell-based, human; conditions: Homo sapiens, HT-29, 72 h, read-out: Cell Proliferation Assay HT29 IC50
Experimental: as §1, §2

[3] = system: phosphorylation of RSK1(S380) (the downstream target of ERK1/2); experiment: Mechanistic (phospho-RSK1(S380) ELISA) assay in HT-29 cells; type: cell-based, human; conditions: Homo sapiens, HT-29, 2 h, 2 h treatment, read-out: Mechanistic Cell Assay RSK1 Phos HT29 IC50
Experimental: Mechanistic (Phospho-RSK1(5380) ELISA) Assay
HT-29 cells (colorectal carcinoma, B-RafV600E); obtained from ATCC, USA) were seeded (60,000 cells/well) in a 96-well plate and incubated at 37° C./5% CO2 overnight and then treated with desired compound dilutions for 2 h. Medium was removed and cells were rinsed once with ice-cold 1×PBS, then 0.070 mL ice-cold 1× cell lysis buffer containing 1 mM PMSF was added to each well and the plate was incubated on a shaker for 2 h and 30 min at 4° C. The plate was then centrifuged for 20 min (×4000 rpm) at 4° C. and the supernatant was transferred to a new plate. Cell lysates were diluted with sample diluent at a ratio of 1:1. The ELISA was then carried out following the manufacturer's protocol (PathScan® phospho-RSK1(Ser380) Sandwich ELISA Kit, Cell Signaling Technologies). The plate was read at 450 nm within 30 min after adding STOP solution. The IC50 values were subsequently determined using a sigmoidal dose-response curve (variable slope) in GraphPad Prism® 5 software. Compounds of the present disclosure inhibited phosphorylation of RSK1(5380) (the downstream target of ERK1/2) as determined in this assay.

ERK1 = target: T2, ERK1 (Homo sapiens, UniProt P27361); experiment: ERK1 HTRF (biochemical) assay
T2 construct: purchased Jubilant Biosys
T2 sequence (P27361 whole entry): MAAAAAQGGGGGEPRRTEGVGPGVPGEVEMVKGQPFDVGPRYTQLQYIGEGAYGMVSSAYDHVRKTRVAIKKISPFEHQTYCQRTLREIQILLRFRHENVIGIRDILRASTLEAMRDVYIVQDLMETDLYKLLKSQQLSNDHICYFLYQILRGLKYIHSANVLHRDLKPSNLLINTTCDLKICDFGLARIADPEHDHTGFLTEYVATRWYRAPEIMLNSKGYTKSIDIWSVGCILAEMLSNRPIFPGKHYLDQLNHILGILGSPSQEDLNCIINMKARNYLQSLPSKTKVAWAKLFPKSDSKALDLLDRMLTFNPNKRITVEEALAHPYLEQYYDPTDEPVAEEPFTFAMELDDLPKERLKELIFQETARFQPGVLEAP
Experimental: as §3, §4

| IC50 [1] | IC50 (ERK2) | IC50 [2] | IC50 [3] | IC50 (ERK1) | SMILES |
| --- | --- | --- | --- | --- | --- |
| > 2500 nM | ≤ 50 nM | > 2500 nM | 100 to 250 nM | ≤ 50 nM | CC[C@@H](CO)Nc1cc(-n2cnc(C(=O)NC(CO)c3cccc(Cl)c3)c2)ccn1 (stereo partly drawn) [Compound 105, N-(1-(3-chlorophenyl)-2-hydroxyethyl)-1-(2-(((S)-1-hydroxybutan-2-yl)-amino)pyridin-4-yl)-1H-imidazole-4-carboxamide] |
| > 2500 nM | ≤ 50 nM |  | 500 to 2500 nM | ≤ 50 nM | Cc1cnc(NC(C)C2CCOCC2)nc1-n1cnc(C(=O)N[C@H](CO)c2cccc(Cl)c2)c1 (stereo partly shown) [Example 239] |
|  | 100 to 500 nM |  |  | 500 to 2500 nM | Cc1cnc(Nc2ccc(Oc3ccccc3)cc2)nc1-n1cnc(C(=O)N[C@H](CO)c2cccc(Cl)c2)c1 [Example 250, N-(1-(3-chlorophenyl)-2-hydroxyethyl)-1-(5-methyl-2-((4-phenoxyphenyl)-amino)pyrimidin-4-yl)-1H-imidazole-4-carboxamide] |
| ≤ 100 nM | ≤ 50 nM | ≤ 100 nM | ≤ 100 nM | ≤ 50 nM | Cc1cnc(N[C@H]2CCOC2)nc1-n1cnc(C(=O)N[C@H](CN)c2cc(F)cc(Cl)c2)c1 [Example 282, N-(2-amino-1-(3-chloro-5-fluorophenyl)ethyl)-1-(5-methyl-2-(((S)-tetrahydrofuran-3-yl)amino)pyrimidin-4-yl)-1H-imidazole-4-carboxamide] |
